The source of these data is patent US9249129B2, “Morpholino substituted urea derivatives as mTOR inhibitors” (CELLZOME LIMITED, priority 2010, dated 2016).

Experiment [1] has as its system S6RP serine-240/244 phosphorylation in HEK293T/17 cells. The experiment can be described thus: In vitro phospho-S6 cellular assay (pS6RP S240/244). In kind it is cell-based. Conditions: Homo sapiens, Table 6, 2 hours, S6RP Ser240/244, read-out: pS6 (phospho-S6 cell assay data, activity level). The method in brief:
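HEK293T/17 cells in DMEM with 2% FCS treated with 8 compound concentrations (0.1% DMSO) for 2 h at 37 °C, then lysed. Phospho-S6RP Ser240/244 or phospho-Akt Ser473 quantified by MesoScale sandwich immunoassay with Sulfo-Tag detection; IC50 from variable-slope sigmoidal fit.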

The target of experiment [2] is T1, PI3K delta (PI3Kd) (Homo sapiens, UniProt O00329).
T1 construct: endogenous in cells; host or cells: Jurkat cells (ATCC TIB-152, clone E6-1), lysate
T1 sequence (O00329 whole entry): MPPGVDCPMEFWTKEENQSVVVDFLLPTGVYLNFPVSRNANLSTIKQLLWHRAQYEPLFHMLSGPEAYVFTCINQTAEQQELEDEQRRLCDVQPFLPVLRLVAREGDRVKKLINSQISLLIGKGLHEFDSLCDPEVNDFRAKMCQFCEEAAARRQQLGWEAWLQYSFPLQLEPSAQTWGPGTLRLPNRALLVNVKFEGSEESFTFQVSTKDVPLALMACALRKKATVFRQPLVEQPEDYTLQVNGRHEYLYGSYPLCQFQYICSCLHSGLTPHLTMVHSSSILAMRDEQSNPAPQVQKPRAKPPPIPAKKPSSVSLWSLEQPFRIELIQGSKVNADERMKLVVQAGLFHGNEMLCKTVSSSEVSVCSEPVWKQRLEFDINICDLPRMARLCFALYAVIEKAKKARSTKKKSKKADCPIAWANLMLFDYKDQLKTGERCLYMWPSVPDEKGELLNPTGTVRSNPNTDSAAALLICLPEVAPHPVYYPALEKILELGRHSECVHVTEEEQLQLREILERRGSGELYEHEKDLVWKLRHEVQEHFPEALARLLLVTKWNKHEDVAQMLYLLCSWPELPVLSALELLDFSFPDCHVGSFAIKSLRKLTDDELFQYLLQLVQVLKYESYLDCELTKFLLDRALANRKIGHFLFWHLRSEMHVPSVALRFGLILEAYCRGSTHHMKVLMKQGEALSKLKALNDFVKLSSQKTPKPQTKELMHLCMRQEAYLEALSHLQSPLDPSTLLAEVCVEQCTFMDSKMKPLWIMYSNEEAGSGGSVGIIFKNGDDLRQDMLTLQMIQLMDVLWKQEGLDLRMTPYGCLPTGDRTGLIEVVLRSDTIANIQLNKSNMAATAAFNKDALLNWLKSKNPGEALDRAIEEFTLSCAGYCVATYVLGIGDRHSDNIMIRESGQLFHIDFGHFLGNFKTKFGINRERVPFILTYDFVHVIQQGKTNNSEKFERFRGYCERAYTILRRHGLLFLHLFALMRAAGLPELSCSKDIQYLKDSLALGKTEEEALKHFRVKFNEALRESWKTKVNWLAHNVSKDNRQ
T1 sequence (P27986 whole entry partner): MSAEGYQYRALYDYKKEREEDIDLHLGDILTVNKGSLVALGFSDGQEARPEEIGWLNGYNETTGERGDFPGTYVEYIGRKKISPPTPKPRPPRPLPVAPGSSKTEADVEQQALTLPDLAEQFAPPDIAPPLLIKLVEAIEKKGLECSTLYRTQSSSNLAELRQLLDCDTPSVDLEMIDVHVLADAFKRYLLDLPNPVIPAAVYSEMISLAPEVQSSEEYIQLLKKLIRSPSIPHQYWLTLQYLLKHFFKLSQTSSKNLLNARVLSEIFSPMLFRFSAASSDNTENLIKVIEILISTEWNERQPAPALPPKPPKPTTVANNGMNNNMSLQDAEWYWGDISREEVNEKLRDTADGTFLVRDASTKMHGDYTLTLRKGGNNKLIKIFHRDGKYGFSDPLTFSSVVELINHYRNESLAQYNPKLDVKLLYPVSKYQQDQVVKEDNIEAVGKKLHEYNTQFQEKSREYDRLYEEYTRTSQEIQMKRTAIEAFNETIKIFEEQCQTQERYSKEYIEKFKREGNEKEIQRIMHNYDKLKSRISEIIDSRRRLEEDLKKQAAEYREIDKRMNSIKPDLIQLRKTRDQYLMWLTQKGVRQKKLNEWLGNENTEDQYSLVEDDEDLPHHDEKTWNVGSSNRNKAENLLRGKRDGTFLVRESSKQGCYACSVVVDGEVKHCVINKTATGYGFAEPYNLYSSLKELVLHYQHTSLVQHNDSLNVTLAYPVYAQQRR
The experiment can be described thus: kinobeads assay, PI3K delta (dot blot detection). It is filed as binding. Conditions: Table 4, read-out: Inhibition values (IC50) PI3Kd. The gist of the method:
(§1)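 Jurkat cell lysate (5 mg/ml protein) was incubated with test compounds and kinobeads (immobilized phenylthiazole and phenylmorpholin-chromen ligands) for 2 h in the cold with shaking. Bead-bound kinase was SDS-eluted and quantified by antibody dot blot with infrared detection. IC50 values came from dose-response curves.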

Experiment [3] deals with Akt serine-473 phosphorylation in HEK293T/17 cells. The experiment can be described thus: In vitro phospho-Akt cellular assay (pAkt S473). In kind it is cell-based. The settings on record: Homo sapiens, Table 6, 2 hours, Akt Ser473, read-out: pAKT (Phospho-Akt cell assay data, activity level). The text has this:
In Vitro Phospho-S6 and Phospho-Akt Cellular Assay
Activation of mTOR signaling results in phosphorylation of several downstream targets. In cells, mTOR exists in two different protein complexes. The mTOR Complex-1 (mTORC1) phosphorylates and activates S6 Kinase 1 (S6K1) and S6 Kinase 2 (S6K2) (also known as p70S6K) which then phosphorylate S6 Ribosomal Protein (S6RP) (also known as RPS6). S6RP is phosphorylated on serine 235, serine 236, serine 240 and serine 244 by both pS6K1 and pS6K2. The mTOR Complex-2 (mTORC2) phosphorylates AKT on serine 473 which activates the AKT signaling pathway.
The assay measures a test compound's inhibition of S6RP serine-240/244 phosphorylation and inhibition of Akt serine-473 phosphorylation in human embryonic kidney derived HEK293T/17 cells (ATCC CRL-11268).
The HEK293T/17 cell line is maintained in DMEM media (Invitrogen catalogue number 41965-039) supplemented with 10% FCS at 37° C. in a 5% CO2 humidified incubator.
Cells are seeded in 96-well plates at 40,000 cells/well (pS6RP S240/244 assay) or 80,000 cells/well (pAkt 5473 assay) in 90 μl growth media (DMEM, 2% FCS). Plates are incubated for 1 hour in a humidified incubator to allow the cells to adhere. Cells are treated with 8 concentrations of test compounds or DMSO alone for controls (final DMSO concentration 0.1%) and incubated at 37° C. for 2 hours. Then 20 μl of 5× concentrated lysis buffer (750 mM NaCl, 100 mM Tris pH7.4, 5 mM EDTA, 5 mM EGTA, 5% Triton X-100) is added, plates are sealed and incubated for 15 minutes at 4° C. with gentle shaking. After cell lysis, 25 μl cell lysate is transferred to a MesoScale plate coated with an antibody to pS6RP Ser240/244 (MesoScale Discovery K150DGD-3) or an antibody to pAkt Ser 473 (MesoScale Discovery K151DGD-3). Plates have been blocked before by incubation with 150 μl MesoScale Discovery Blocking Solution-A for 1 hour at room temperature followed by washing with 150 μl 1× Tris wash buffer per well. After the transfer of the cell lysate to the MSD plate, the pS6RP (or pAkt) protein is captured on the coated antibody by incubation at room temperature for 1 hour with gentle shaking. After the capture step the plate is washed three times with 150 μl of 1× Tris wash buffer per well. Then 25 μl detection antibody conjugated with a Sulfo-Tag is added and incubated for 1 hour at room temperature with gentle shaking. Subsequently the antibody solution is removed and the plate is washed 3 times with 150 μl 1× Tris wash buffer per well and 150 μl Read buffer is added. The plates are analysed on a MSD 2400 Plate Reader (MesoScale Discovery). Data analysis is performed using nonlinear regression for a sigmoidal dose-response with a variable slope.

Experiment [4] has as its target T2, PI3Kβ (Homo sapiens, UniProt P42338).
T2 construct: endogenous in cells; host or cells: Jurkat cells (ATCC TIB-152) lysate, the only lysate described
As to the kind of experiment: kinobeads assay, PI3K beta (dot blot detection). Conditions: Table 4, read-out: Inhibition values (IC50) PI3Kb. In kind it is binding.

Experiment [5] addresses T3, mTOR (Homo sapiens, UniProt P42345).
T3 construct: endogenous in cells; host or cells: Jurkat cells (ATCC TIB-152, clone E6-1), lysate
As to the kind of experiment: mTOR kinobeads assay (dot blot detection). It is filed as binding. The settings on record: Table 4, read-out: Inhibition values (IC50) mTOR. The gist of the method: as §1

The target of experiment [6] is T4, PI3Kα (Homo sapiens, UniProt P42336).
T4 construct: endogenous in cells; host or cells: Jurkat cells (ATCC TIB-152) lysate, the only lysate described
T4 sequence (P42336 whole entry): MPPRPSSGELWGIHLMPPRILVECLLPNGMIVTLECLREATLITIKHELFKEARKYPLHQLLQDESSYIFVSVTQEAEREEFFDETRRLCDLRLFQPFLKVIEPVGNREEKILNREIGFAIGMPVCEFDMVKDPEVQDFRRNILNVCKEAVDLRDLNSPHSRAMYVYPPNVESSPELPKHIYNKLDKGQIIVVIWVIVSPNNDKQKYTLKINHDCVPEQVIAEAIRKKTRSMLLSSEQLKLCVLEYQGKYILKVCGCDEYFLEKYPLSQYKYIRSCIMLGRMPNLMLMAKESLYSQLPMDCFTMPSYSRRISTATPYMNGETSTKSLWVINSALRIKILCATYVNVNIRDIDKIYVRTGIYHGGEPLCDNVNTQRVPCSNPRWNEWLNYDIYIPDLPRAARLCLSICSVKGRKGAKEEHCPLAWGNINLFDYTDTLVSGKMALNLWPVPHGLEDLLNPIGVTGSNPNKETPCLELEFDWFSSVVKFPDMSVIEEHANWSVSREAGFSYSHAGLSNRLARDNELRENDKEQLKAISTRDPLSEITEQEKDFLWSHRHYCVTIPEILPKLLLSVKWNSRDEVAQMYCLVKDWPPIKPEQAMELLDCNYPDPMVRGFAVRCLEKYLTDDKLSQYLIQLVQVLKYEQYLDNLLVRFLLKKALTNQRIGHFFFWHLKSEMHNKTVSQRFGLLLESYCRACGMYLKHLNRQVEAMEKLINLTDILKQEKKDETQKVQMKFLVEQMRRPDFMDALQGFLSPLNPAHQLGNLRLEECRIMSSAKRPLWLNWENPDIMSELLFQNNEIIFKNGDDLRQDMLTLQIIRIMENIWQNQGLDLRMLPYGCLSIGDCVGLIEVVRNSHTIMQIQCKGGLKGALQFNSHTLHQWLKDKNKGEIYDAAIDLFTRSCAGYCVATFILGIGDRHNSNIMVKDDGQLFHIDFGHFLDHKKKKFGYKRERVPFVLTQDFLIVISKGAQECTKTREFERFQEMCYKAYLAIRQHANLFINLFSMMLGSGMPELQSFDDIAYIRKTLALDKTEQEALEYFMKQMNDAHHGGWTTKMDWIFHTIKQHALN
T4 sequence (P27986 whole entry partner): as the sequence (P27986 whole entry partner) above
The experiment can be described thus: kinobeads assay, PI3K alpha (dot blot detection). In kind it is binding. The settings on record: Table 4, read-out: Inhibition values (IC50) PI3Ka.

Experiment [7] has as its target T5, PI3Kγ (Homo sapiens, UniProt P48736).
T5 construct: endogenous in cells; host or cells: Jurkat cells (ATCC TIB-152) lysate, the only lysate described
The experiment can be described thus: kinobeads assay, PI3K gamma (dot blot detection). It is filed as binding. The settings on record: Table 4, read-out: Inhibition values (IC50) PI3Kg.

The target of experiment [8] is T6, DNA-dependent protein kinase (DNA-PK) (Homo sapiens, UniProt P78527).
T6 construct: endogenous in cells; host or cells: Jurkat cells (ATCC TIB-152, clone E6-1), lysate
The experiment can be described thus: kinobeads assay, DNA-PK (dot blot detection). Conditions: Table 4, read-out: Inhibition values (IC50) DNAPK. It is filed as binding. The gist of the method:
as §1

Each structure is given as a SMILES string.

T2 sequence (P42338 whole entry): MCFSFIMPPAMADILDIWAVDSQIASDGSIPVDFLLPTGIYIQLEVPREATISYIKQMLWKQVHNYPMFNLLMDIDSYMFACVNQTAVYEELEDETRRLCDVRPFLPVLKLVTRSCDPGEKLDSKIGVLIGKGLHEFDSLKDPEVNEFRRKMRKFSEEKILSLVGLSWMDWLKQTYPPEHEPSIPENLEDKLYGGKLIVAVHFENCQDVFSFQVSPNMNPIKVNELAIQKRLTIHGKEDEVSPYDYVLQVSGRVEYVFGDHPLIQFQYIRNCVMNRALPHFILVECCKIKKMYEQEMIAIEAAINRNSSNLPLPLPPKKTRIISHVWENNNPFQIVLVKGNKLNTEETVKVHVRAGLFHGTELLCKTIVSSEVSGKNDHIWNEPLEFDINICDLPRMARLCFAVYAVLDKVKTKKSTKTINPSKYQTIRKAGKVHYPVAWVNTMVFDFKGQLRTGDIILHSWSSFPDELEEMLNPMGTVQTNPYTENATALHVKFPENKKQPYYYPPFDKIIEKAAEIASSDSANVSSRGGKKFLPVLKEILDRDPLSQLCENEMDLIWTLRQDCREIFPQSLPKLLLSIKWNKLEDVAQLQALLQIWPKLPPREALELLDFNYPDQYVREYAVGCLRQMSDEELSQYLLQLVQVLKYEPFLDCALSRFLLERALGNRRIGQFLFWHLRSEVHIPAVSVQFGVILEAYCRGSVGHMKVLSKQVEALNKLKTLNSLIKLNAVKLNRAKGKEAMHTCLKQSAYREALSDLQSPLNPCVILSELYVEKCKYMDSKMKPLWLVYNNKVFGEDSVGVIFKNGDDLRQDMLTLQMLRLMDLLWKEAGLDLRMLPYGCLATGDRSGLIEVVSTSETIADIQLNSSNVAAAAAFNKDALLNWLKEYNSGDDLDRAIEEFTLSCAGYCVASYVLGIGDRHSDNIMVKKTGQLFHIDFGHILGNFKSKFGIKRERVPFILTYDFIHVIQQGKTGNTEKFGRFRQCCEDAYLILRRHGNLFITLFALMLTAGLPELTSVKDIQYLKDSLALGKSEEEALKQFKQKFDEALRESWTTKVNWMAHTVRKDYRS
T2 sequence (P27986 whole entry partner): as the sequence (P27986 whole entry partner) above
T5 sequence (P48736 whole entry): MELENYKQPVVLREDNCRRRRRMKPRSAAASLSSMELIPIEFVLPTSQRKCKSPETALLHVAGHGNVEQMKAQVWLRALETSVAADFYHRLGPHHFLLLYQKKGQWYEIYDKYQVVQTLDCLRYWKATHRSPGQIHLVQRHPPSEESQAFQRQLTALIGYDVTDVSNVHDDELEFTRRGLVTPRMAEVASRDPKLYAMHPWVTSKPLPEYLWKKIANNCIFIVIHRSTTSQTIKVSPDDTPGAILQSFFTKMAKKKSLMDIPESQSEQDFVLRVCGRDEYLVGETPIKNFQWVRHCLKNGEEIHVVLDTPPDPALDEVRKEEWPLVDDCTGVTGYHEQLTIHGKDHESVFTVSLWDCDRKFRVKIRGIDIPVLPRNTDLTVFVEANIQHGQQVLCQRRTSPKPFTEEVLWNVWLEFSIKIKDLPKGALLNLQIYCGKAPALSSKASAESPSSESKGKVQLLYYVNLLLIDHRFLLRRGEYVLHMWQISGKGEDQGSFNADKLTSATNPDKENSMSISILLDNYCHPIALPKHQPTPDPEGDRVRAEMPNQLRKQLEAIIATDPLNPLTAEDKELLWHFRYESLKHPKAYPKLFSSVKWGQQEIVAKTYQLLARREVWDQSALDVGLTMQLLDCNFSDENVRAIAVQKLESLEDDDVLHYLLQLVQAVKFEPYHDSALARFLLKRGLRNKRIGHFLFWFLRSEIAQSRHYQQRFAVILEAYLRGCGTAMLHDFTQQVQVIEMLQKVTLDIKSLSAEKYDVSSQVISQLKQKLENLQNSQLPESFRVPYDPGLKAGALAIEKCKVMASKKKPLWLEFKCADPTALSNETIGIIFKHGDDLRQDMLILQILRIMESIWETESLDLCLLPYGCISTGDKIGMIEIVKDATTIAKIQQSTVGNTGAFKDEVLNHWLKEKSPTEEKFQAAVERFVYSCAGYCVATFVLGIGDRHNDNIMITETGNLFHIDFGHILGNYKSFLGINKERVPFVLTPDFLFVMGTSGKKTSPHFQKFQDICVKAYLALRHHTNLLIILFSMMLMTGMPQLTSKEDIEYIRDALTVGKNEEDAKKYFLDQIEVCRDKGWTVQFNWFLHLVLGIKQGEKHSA

In the case of `C[C@@H](CO)NC(=O)Nc1ccc(-c2cc(-c3cc(F)ccc3S(C)(=O)=O)nc(N3CCOC[C@@H]3C)n2)cc1` [Example 74, 1-(4-(6-(5-fluoro-2-(methylsulfonyl)phenyl)-2-((S)-3-methylmorpholino)pyrimidin-4-yl)phenyl)-3-((S)-1-hydroxypropan-2-yl)urea], the IC50 is under 0.1 µM in experiment [1]; at least 10 µM in experiment [2]; under 0.1 µM in experiment [3]; at least 10 µM in experiment [4]; 0.1 to 1 µM in experiment [5]; at least 10 µM in experiment [6]. The IC50 in experiment [7] and in experiment [8] was at least 10 µM each time.

For `C[C@H]1COCCN1c1cc(-c2cc(F)ccc2S(C)(=O)=O)nc(-c2ccc(NC(=O)NC3CC3)cc2)n1` [Example 77, (S)-1-cyclopropyl-3-(4-(4-(5-fluoro-2-(methylsulfonyl)phenyl)-6-(3-methylmorpholino)pyrimidin-2-yl)phenyl)urea], the IC50 in experiment [1] is under 0.1 µM; in experiment [2], at least 10 µM; in experiment [3], under 0.1 µM; in experiment [4], at least 10 µM; in experiment [5] it was 0.1 to 1 µM; in experiment [6], at least 10 µM. Also, the IC50 in experiment [7] and in experiment [8] was at least 10 µM throughout.

For `C[C@H]1COCCN1c1cc(-c2cc(F)ccc2S(C)(=O)=O)nc(-c2ccc(NC(=O)NCCO)cc2)n1` [Example 78, (S)-1-(4-(4-(5-fluoro-2-(methylsulfonyl)phenyl)-6-(3-methylmorpholino)pyrimidin-2-yl)phenyl)-3-(2-hydroxyethyl)urea], the IC50 in experiment [1] is under 0.1 µM; in experiment [2] it was at least 10 µM; in experiment [3] it was under 0.1 µM; in experiment [4] it was at least 10 µM; in experiment [5] it was under 0.1 µM; in experiment [6], at least 10 µM. Moreover, the IC50 in experiment [7] and in experiment [8] was at least 10 µM in each case.
